Measurements taken from patent US12319681B2, “Tripartite androgen receptor eliminators, methods and uses thereof” (SPG Therapeutics, Inc., priority 2017, dated 2025).
Where two headings read alike, the source gives them in different places.

Assays:
androgen receptor (AR) [1] = molecular target: T1, androgen receptor (AR) (Homo sapiens, UniProt P10275); test: MDA-kb2 AR luciferase reporter gene assay (1.0 nM DHT); format: cell-based; conditions: MDA-kb2, 24 h, read-out: Gene Activity Reduction
Protocol: This example illustrates how to determine the inhibitory activity of an ARE disclosed herein using a cell-based androgen receptor transcriptional reporter assay using an engineered cell line.
(§1) Each ARE tested was prepared in DMSO. […] Ethanol concentrations in media never exceeded 0.1%.
(§2) To assess ARE-mediated inhibition, an AR luciferase assay was performed. After washing cells with 1×PBS, 20 μL lysis buffer (25 mM Tris/phosphate, 4 mM EGTA, 1% Triton, 10% glycerol, 2 mM DTT) was added per well, incubated for 5 minutes with gentle shaking and store at −80° C. On the day of assay, the plates were thawed to ambient temperature and 80 μL of assay buffer (25 mM glycylglycine, 15 mM MgCl2. 5 mM ATP, 0.1 mg/ml BSA) was added to each well. Plates are then processed on a microplate reader (POLARstar Omega) by injecting 100 μL of 1 mM D-luciferin per well, followed by chemiluminescence measurement of 3 seconds at onset of injection. Luciferase activity was determined, measured, and normalized to Relative Light Units (RLU). AR reporter gene activity reduction values were calculated as follows: AR reporter gene activity=1−(average signal (treatment group)/average signal (treatment group without drug).

androgen receptor (AR) [2] = molecular target: T2, androgen receptor (AR) (Homo sapiens, UniProt P10275); test: Keratinocyte AR luciferase reporter gene assay (Example 10); format: cell-based; conditions: 24 h, read-out: Gene Activity Reduction
T2 construct: human keratinocytes transfected with an AR luciferase reporter gene; endogenous in cells; host or cells: normal human adult primary epidermal keratinocytes (ATCC PCS-200-011)
T2 sequence (P10275 1-920): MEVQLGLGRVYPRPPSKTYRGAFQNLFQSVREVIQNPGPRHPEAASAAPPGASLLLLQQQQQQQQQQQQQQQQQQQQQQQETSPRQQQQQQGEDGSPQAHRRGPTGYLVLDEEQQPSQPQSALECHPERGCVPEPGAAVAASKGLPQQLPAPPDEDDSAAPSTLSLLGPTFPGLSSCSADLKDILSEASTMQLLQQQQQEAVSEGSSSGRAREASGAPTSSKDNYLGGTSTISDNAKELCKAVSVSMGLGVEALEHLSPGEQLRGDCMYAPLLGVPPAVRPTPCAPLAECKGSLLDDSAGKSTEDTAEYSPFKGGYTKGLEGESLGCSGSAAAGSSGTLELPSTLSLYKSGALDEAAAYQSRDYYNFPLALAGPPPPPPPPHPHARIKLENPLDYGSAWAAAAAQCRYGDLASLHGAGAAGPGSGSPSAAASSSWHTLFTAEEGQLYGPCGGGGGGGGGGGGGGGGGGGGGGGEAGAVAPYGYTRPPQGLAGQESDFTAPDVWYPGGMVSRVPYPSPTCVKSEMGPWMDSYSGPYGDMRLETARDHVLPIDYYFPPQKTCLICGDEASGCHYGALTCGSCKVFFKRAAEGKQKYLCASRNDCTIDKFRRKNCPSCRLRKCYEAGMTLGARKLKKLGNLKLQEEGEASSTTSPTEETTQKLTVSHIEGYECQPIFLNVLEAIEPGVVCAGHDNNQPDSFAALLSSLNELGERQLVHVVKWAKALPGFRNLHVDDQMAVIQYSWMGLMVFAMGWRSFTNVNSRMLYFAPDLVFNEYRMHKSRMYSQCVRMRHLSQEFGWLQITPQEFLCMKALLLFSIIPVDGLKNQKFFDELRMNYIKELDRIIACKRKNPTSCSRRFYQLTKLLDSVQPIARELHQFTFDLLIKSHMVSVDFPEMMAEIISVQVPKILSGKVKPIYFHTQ
Protocol: as §1, §2

androgen receptor (AR) [3] = molecular target: T2, androgen receptor (AR); test: Keratinocyte AR protein level ELISA (Example 10); format: cell-based; conditions: 24 h, read-out: AR Reduction
Protocol: as §1
To assess levels of AR, an ELISA was performed.

androgen receptor (AR) [4] = molecular target: T2, androgen receptor (AR); test: Keratinocyte AR Reporter Gene Assay, 24 and 72 hours continuous exposure (Example 12); format: cell-based; conditions: keratinocytes
Protocol: as §2
This example illustrates how to determine the inhibitory activity of an ARE disclosed herein using a cell-based androgen receptor transcriptional reporter assay using primary human keratinocytes.
Results were analyzed for IC50 and IC90 values in GraphPad Prism using a four-parameter logistic curve equation. Bottom constraints were set to 1 (level of uninduced control).

androgen receptor (AR) [5] = molecular target: T2, androgen receptor (AR); test: Keratinocyte AR Reporter Gene Assay with washout (sustained effects); format: cell-based; conditions: 7.0 μM for 24 hours
Protocol: Reporter gene activity was measured following two days or three days of additional cell culture in the absence of AR antagonists. AR reporter gene activity reduction was calculated as follows: 1−(average signal (treatment group)/(average signal (treatment group, without drug, same washout period).

androgen receptor (AR) [6] = molecular target: T1, androgen receptor (AR); test: MDA-kb2 Assay with 0.1 nM DHT (Example 13); format: cell-based
Protocol: as §2
To determine efficacy of a compound, a MDA-kb2 assay was performed as described in Example 10. The cells were treated with compounds for 24 hours prior to measurements of reporter gene activity. […] AR luciferase assay results were analyzed using GraphPad Prism using a four-parameter logistic curve equation. Bottom constraints were set at 1 (level of uninduced control.)

[7] = tested on: normal Human Adult Primary Epidermal Keratinocyte cell line; conditions: 72 h
Protocol: For the Keratinocyte assay, normal Human Adult Primary Epidermal Keratinocyte cell line (ATCC PCS-200-011) was maintained in EPIUFE® Medium, with 60 μM calcium (Thermo MEPISOOCA) supplemented with Human Keratinocyte Growth Supplement, 100 U/mL penicillin, and 100 μg/mL streptomycin at 37° C. with 5% C02. For experiments, cells were seeded at 70% confluence per well in 100 μL of medium in 96-well plates. Reverse transfection was done on the cells using Lipofectamine 3000 (Life Technologies) with plasmids according to manufacturer's instructions. Briefly, 0.3 μL transfection reagent per 100 ng DNA were incubated with P3000 reagent and Opti-Mem prior to addition of cells. After 16 hours, medium was removed and replaced with dosing medium.
Each ARE tested was prepared in DMSO. Dosing medium was prepared at the time of treatment by serial diluting stock solution into medium. Ethanol concentrations in media never exceeded 0.1%. […] Negative control wells contained 100 L medium/well with 1 μL of ethanol/mL of medium and an appropriate amount of DMSO. […] Cells were incubated 72 hours at 37° C. without CO2.

`CC12CCC(=O)C=C1C[C@@H](SC(=O)CC13CC4CC(CC(C4)C1)C3)C1C2CCC2(C)C1CC[C@@]21CCC(=O)O1` (stereo partly shown) [SPG-003] gave an inhibition at 0.1 µM (androgen receptor (AR) [1]) of 8%, an inhibition at 1 µM (androgen receptor (AR) [1]) of 20% and an inhibition at 3 µM (androgen receptor (AR) [1]) of 40%. The inhibition at 10 µM (androgen receptor (AR) [1]) was 90%, the inhibition at 0.1 µM (androgen receptor (AR) [2]) was 21% and the inhibition at 1 µM (androgen receptor (AR) [2]) was 31%. It also gave an inhibition at 3 µM (androgen receptor (AR) [2]) of 50%, an inhibition at 10 µM (androgen receptor (AR) [2]) of 93% and an inhibition at 0.1 µM (androgen receptor (AR) [3]) of 6%. The inhibition at 1 µM (androgen receptor (AR) [3]) was 19%, the inhibition at 3 µM (androgen receptor (AR) [3]) was 26% and the inhibition at 10 µM (androgen receptor (AR) [3]) was 65%. The IC50 (androgen receptor (AR) [4]; 24-hr Treatment) was 3.68 µM, the IC90 (androgen receptor (AR) [4]; 24-hr Treatment) was 6.96 µM and the “Maximum Inhibition” value (androgen receptor (AR) [4]; 24-hr Treatment) was 91%. The IC50 (androgen receptor (AR) [4]; 24-hr treatment) was 3.7 µM, the IC90 (androgen receptor (AR) [4]; 24-hr treatment) was 7 µM and the IC50 (androgen receptor (AR) [4]; 72-hour treatment) was 2.5 µM. For the same compound, the IC90 (androgen receptor (AR) [4]; 72-hour treatment) was 5.7 µM, the IC50 (androgen receptor (AR) [4]; 72-hr Treatment) was 2.57 µM and the IC90 (androgen receptor (AR) [4]; 72-hr Treatment) was 5.68 µM. The “Maximum Inhibition” value (androgen receptor (AR) [4]; 72-hr Treatment) was 93%, the “inhibition of AR reporter gene activity (in words)” value (androgen receptor (AR) [4]; 24 and 72 hours) was “dose-dependent inhibition” and the “AR reporter gene activity reduction” value (androgen receptor (AR) [5]; Washout Period 0 days) was 89 ± 1.0%. The “AR reporter gene activity reduction” value (androgen receptor (AR) [5]; Washout Period 2 days) was 64 ± 0.3%, the IC50 (androgen receptor (AR) [6]; MDA-kb2, 0.1 nM DHT, 24 hours) was 0.789 µM and the IC90 (androgen receptor (AR) [6]; MDA-kb2, 0.1 nM DHT, 24 hours) was 2.71 µM. The “Maximum Inhibition” value (androgen receptor (AR) [6]; MDA-kb2, 0.1 nM DHT, 24 hours) was 95%, the “dose-dependent inhibition of AR reporter gene activity (in words)” value (androgen receptor (AR) [6]; MDA-kb2, reduced DHT levels (0.1 nM)) was “dose-dependent inhibition” and the “Cell Viability” value ([7]; 0.62 μM) was 92.16 ± 1.30. For the same compound, the “Cell Viability” value ([7]; 1.85 μM) was 73.46 ± 1.11, the “Cell Viability” value ([7]; 5.56 μM) was 66.12 ± 3.09 and the “Cell Viability” value ([7]; 16.67 μM) was 55.11 ± 0.16. The “Cell Viability” value ([7]; 50 μM) was 38.67 ± 2.25.
